Reference: patent publication US20220324809A1, “ATP-REGULATED POTASSIUM CHANNEL OPENERS AND USES THEREOF” (SALZMAN GROUP LTD., priority 2019, published 2022)

Assays:
Assay type in all cases: in vivo, Sprague-Dawley rats
MCT-induced PH [1] = experiment: Single IV administration of R-1703 in rat treatment model of MCT-induced PH (acute and sustained effect)
From the text: An established rat model for PH utilizes monocrotaline (MCT), a toxin derived from plants of the Crotalaria species, which causes pulmonary arterial endothelial cell injury and subsequent pulmonary artery smooth muscle hypertrophy. This model serves as a tool for assessing an immediate vasorelaxation effect by monitoring real-time right ventricular pressure in rats with PAH (late intervention regimen), as well as assessment of efficacy in a prevention of vascular remodeling progression (early intervention regimen). In the latter mode, weight ratios of left and right ventricles and histopathological assessment of right ventricular hypertrophy are used to evaluate the extent of fibrosis. R-1703 is effective in acutely treating a rodent model of MCT-induced PH. Sprague-Dawley rats (n=3 per group) were treated with a single subcutaneous (SC) injection of MCT with 60 mg/kg or an equivalent volume of saline (2 mL/kg). After a post-MCT period of 28 days wherein rats developed severe and stable PH, rats were anesthetized and endotracheally intubated, followed by a single intravenous (IV) administration of R-1703 (15, 30, 60, and 90 μg/kg, in PBS) via the tail vein. Vehicle controls received an equivalent volume of PBS. MCT induced a large increase in MPAP (from 25 to 50 mmHg). […] The experiments shown below have been repeated three times and are reproducible.

MCT-induced PH [2] = experiment: Intratracheal aerosolized R-1703 in rat treatment model of MCT-induced PH: acute effect
Experimental: (§1) Intratracheal (IT) aerosolized R-1703 is effective in a rodent treatment model of MCT-induced PH: Acute effect. 28 days after injection of MCT (60 mg/kg SC) and development of severe and stable PH, mechanically ventilated and anaesthetized Sprague-Dawley rats were dosed IT with aerosolized solution (2.0 mL) containing 500 or 5000 ng/mL of R-1703 in PBS. Vehicle controls received an equivalent volume of PBS. MCT induced a large increase in MPAP.

MCT-induced PH [3] = experiment: Intratracheal aerosolized R-1703 in rat treatment model of MCT-induced PH: sustained effect
Experimental: as §1, with “Intratracheal” for “Intratracheal (IT)”, “Sustained” for “Acute”, “delivering 0.6, 6.0,” for “containing 500”, “30 micrograms per kg” for “5000 ng/mL”

MCT-induced PH [4] = experiment: Prophylactic daily IP R-1703 in rat model of MCT-induced PH; conditions: 50 micrograms per kg IP daily, measured 28 days post-MCT, p<0.001, FIG. 4
Experimental: Sprague-Dawley rats (n=3 per group) were treated with a single SC injection of MCT with 60 mg/kg or an equivalent volume of saline (2 mL/kg). Rats were then treated daily with 50 micrograms per kg of R-1703 by an intraperitoneal (IP) route of administration. After a post-MCT period of 28 days wherein vehicle control treated rats develop severe and stable PH, rats were anesthetized and endotracheally intubated.

[5] = IT aerosol 0.6, 6.0 or 30 micrograms per kg

CCC(C)(C)N/C(=N\C#N)Nc1cncc(C(=O)NCCO)c1 [R-1703]
effect on heart rate (MCT-induced PH [1]; IV 15-90 μg/kg): no effect | effect on peripheral blood pressure (MCT-induced PH [1]; IV 15-90 μg/kg): no effect | persistence of effect on MPAP post dose (MCT-induced PH [1]; IV, FIG. 1B): at least 24 h | persistence of effect on MPAP after administration (MCT-induced PH [1]; IV, FIG. 1B legend): at least 24 hours | effect on MCT-induced elevation in MPAP (MCT-induced PH [1]; single IV 15, 30, 60, 90 μg/kg in PBS, 28 days post-MCT): dose-dependently reduced the MCT-induced elevation in MPAP | restoration of normal pressures (MPAP) (MCT-induced PH [1]; single IV dose 90 μg/kg, 28 days post-MCT, p<0.000005, FIG. 1A): 100% | effect on heart rate (MCT-induced PH [2]; IT aerosol 500 or 5000 ng/mL): no effect | effect on peripheral blood pressure (MCT-induced PH [2]; IT aerosol 500 or 5000 ng/mL): no effect | effect on MCT-induced elevation in MPAP (MCT-induced PH [2]; IT aerosolized solution 2.0 mL, 500 or 5000 ng/mL, acute effect, p<0.001, FIG. 2): dose-dependently reduced the MCT-induced elevation in MPAP | effect on heart rate (MCT-induced PH [3]; [5]): no effect | effect on peripheral blood pressure (MCT-induced PH [3]; [5]): no effect | effect on MCT-induced elevation in MPAP (MCT-induced PH [3]; IT aerosol delivering 0.6, 6.0 or 30 micrograms per kg, sustained effect, p<0.001, FIG. 3): dose-dependently reduced the MCT-induced elevation in MPAP | restoration of normal pressures (MPAP) (MCT-induced PH [4]): 80%
